Test results taken from patent US20040002493A1, “Benzoic acid derivatives and pharmaceutical agents comprising the same as active ingredient” (priority 2000, published 2004).
pKi: −log10 of the molar value.

Assays:
Test in all cases: Binding assay using cell expressing the prostanoid receptor subtypes, [3H]-PGE2 competition on CHO membrane fraction
[1] = molecular target: T1, EP1 receptor (Mus musculus, UniProt P35375); details: mouse EP1, [3H]-PGE2 2.5 nM, pH 6.0
T1 construct: expressed in transfected cells; host or cells: CHO cells
T1 sequence (P35375 1-405): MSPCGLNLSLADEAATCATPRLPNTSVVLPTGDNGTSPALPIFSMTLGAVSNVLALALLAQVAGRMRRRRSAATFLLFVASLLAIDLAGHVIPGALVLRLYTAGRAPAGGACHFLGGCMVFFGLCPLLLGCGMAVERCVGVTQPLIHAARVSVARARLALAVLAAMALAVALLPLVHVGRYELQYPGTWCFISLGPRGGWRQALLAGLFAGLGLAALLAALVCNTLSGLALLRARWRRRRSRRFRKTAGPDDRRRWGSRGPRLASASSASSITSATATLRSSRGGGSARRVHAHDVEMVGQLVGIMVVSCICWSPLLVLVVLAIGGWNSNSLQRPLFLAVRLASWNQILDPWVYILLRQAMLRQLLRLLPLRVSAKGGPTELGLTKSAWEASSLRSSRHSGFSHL
Method: (§1) (i) Binding Assay Using Cell Expressing the Prostanoid Receptor Subtypes
(§2) The preparation of membrane fraction was carried out according to the method of Sugimoto et al [J. Biol. Chem. 267, 6463-6466 (1992)], using CHO cell expressing prostanoid receptor subtypes (mouse EP1, EP2, EP3α, and EP4).
(§3) The standard assay mixture containing membrane fraction (50 μL), [^3H]-PGE2 in a final volume of 150 μL was incubated for 1 hour at room temperature. The reaction was terminated by addition of 3 mL of ice-cold buffer. The mixture was rapidly filtered through a glass filter (GF/B) under reduced pressure. The radioactivities associated with the filters were measured by liquid scintillation counter.
(§4) Kd and Bmax values were determined from Scatchard plots [Ann. N.Y. Acad. Sci. 51, 660(1949)]. Non-specific binding was determined as the amount bound in the presence of an excess (2.5 μM) of unlabeled PGE2. In the experiment for competition of specific [^3H]-PGE2 binding assay, [^3H]-PGE2 was added at a concentration of 2.5 nM and a test compound of the present invention was added at various concentrations. The following buffer was used in all reactions.
(§5) Buffer: 10 mM potassium phosphate (pH 6.0), 1 mM EDTA, 10 mM MgCl2, 0.1 M NaCl.
(§6) The inhibition constant (Ki) (μM) of each compound was calculated by the following equation.

[2] = molecular target: T2, EP2 receptor (Mus musculus, UniProt Q62053); details: mouse EP2, [3H]-PGE2 2.5 nM, pH 6.0
T2 construct: expressed in transfected cells; host or cells: CHO cells
Method: as §1, §2, §3, §4, §5, §6

[3] = molecular target: T3, EP3 receptor (Mus musculus, UniProt P30557); details: mouse EP3α, [3H]-PGE2 2.5 nM, pH 6.0
T3 construct: expressed in transfected cells; host or cells: CHO cells
T3 sequence (P30557 1-365): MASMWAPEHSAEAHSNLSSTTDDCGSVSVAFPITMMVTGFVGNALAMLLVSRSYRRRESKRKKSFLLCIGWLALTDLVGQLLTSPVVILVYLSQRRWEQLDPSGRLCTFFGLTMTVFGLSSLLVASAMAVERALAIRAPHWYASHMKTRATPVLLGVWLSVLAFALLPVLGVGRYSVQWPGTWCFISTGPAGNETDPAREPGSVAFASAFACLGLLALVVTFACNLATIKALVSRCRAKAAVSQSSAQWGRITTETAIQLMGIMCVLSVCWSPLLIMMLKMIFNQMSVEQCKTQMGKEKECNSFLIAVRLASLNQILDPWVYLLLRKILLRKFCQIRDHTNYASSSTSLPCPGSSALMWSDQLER
Method: as §1, §2, §3, §4, §5, §6

[4] = molecular target: T4, EP4 receptor (Mus musculus, UniProt P32240); details: mouse EP4, [3H]-PGE2 2.5 nM, pH 6.0
T4 construct: expressed in transfected cells; host or cells: CHO cells
Method: as §1, §2, §3, §4, §5, §6

T4 sequence (P32240 whole entry): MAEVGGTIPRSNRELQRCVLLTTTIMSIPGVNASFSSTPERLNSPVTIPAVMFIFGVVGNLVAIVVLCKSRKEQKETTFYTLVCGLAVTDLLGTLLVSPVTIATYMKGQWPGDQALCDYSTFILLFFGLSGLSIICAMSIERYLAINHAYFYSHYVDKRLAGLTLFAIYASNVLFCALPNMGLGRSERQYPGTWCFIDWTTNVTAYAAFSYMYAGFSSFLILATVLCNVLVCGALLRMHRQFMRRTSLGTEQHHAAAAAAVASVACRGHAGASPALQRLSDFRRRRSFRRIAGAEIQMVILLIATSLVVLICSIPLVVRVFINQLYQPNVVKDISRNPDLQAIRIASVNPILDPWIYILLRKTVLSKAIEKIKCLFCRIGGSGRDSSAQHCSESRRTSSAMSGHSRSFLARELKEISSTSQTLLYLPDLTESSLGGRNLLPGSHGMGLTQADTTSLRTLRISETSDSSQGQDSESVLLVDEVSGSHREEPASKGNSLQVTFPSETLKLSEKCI
T2 sequence (Q62053 whole entry): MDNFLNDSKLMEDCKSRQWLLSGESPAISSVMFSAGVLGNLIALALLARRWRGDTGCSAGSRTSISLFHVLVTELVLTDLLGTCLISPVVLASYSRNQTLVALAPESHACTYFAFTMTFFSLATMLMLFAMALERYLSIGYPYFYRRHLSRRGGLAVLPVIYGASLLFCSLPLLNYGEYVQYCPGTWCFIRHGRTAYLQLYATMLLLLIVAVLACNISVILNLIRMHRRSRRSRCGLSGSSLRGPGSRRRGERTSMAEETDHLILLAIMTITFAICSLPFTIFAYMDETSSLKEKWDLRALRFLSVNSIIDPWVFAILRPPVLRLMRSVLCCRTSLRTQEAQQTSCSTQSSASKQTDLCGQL

With `CC(C(=O)Nc1ccccc1Cc1ccccc1C(=O)O)c1ccc(OCc2ccccc2)cc1` (stereo not shown) [2(1), 2-[2-[2-(4-Benzyloxyphenyl)propanoylamino]phenyl]methylbenzoic Acid] the pKi [1] was 5.82, the pKi [2] was 5.10 and the pKi [3] was 7.22. For the same molecule, the pKi [4] was 8.00.
